Test results published in US10799477B2, “Pharmaceutical composition for preventing or treating LDL cholesterol-related diseases, containing ribosome-binding preparation” (PUSAN NATIONAL UNIVERSITY INDUSTRY UNIVERSITY, priority 2016, dated 2020).

What was measured:
[1] = system: LDLR; experiment: mRNA level of LDLR in HepG2 cells, real-time RT-PCR; assay type: cell-based, human; settings: HepG2 cells, 100, 500, 1000 ng/ml DON or 500, 1000, 2000 nM ANS, 1 hour, dose dependent, FIG. 11
[2] = system: LDLR; experiment: Protein level of LDLR in HCT-8 cells, Western blot; assay type: cell-based, human; settings: whole cell lysates, FIG. 9
Protocol: Further, HCT-8 cells were treated with vehicle or 1000 ng/ml DON for the indicated time. Thereafter, protein levels of LDLR were measured using whole cell lysates via Western blots. Specifically, the cells were washed with phosphate buffer. Subsequently, the cells were dissolved in lysis buffer (1% [w/v] SDS, 1.0 mM sodium orthovanadate, and 10 mM Tris [pH 7.4]). The lysate was sonicated for 5 seconds. The lysate was quantitated using the BCA protein assay kit (Pierce, Rockford, Ill., USA). Subsequently, immunoblotting was carried out to confirm the level of the protein in the cells. The results are illustrated in FIG. 9.

[3] = system: LDLR; experiment: mRNA level of LDLR in HCT-8 cells, real-time RT-PCR; assay type: cell-based, human; settings: HCT-8 cells, 100, 500, 1000 ng/ml DON or 500, 1000, 2000 nM ANS, 2 hours, dose dependent, FIG. 10
Protocol: Further, HCT-8 cells were treated with vehicle or 1000 ng/ml DON for the indicated time. In these treated cells, an mRNA level of LDLR was measured using real-time RT-PCR. Specifically, RNA was extracted using RiboEX (GeneAll Biotechnology, Seoul, Korea). Subsequently, the RNA (100 ng) from each sample was transcribed into cDNA using Prime Moloney murine leukemia virus reverse transcriptase (Genetbio, Nonsan, South Korea). The cDNA was then amplified using n-Taq DNA polymerase (Enzynomics, Seoul, South Korea). The amplified cDNA was treated at 95° C. for 2 minutes. The cDNA was then treated for 30 seconds at 95° C., for 30 seconds at 58° C. and for 30 seconds at 72° C. at each of different cycles. The thus treated cDNA was amplified and the amplification thereof was confirmed by electrophoresis. FAM was used as a fluorescent reporter staining drug. FAM was conjugated to a 5′ terminal of a product of the amplified cDNA. The resulting product was subjected to real-time RT-PCR using an iCycler thermal cycler (Bio-Rad). […]
Additionally, to determine the effect of chemical ribosome inactivators (DON, ANS) at different doses on the LDLR expression level, HCT-8 cells were treated with vehicle, 0, 100, 500, 1000 ng/ml DON or 0, 500, 1000, 2000 nM ANS for 2 hours. Then, mRNA levels of LDLR in the cells were measured using real-time RT-PCR. […] The mRNA level of the LDLR of the cells was measured. […]

[4] = system: LDLR; experiment: LDLR immunohistochemistry in ileum and jejunum of mice fed DON; assay type: in vivo; settings: 25 mg/kg DON oral feeding, after 24 hours, IHC, FIG. 12
Protocol: Further, additional animal studies were performed to determine whether ribosome-inactivation stress increases a level of LDLR expression in the small intestine. Six-week-old male B6C3F1 mice (C57B1/6J×C3H/HeJ) were purchased from Samtako Bio Korea (Osan, South Korea). Animal experiments were performed according to the animal test method as approved in the Laboratory Animal Care Committee (PNU-2010-0291). Vehicle or 25 mg/kg DON was administered to the mice via oral feeding. After 24 hours, immunohistochemistry (IHC) was performed on ileum and jejunum to measure LDLR expression levels. The results are illustrated in FIG. 12.

[5] = system: HCT-8 cells; experiment: Lipid droplets in HCT-8 cells, Oil Red O staining; assay type: cell-based, human; settings: 1000 mg/ml DON or 2 μM ANS, 24 h, FIG. 2
Protocol: To confirm the effect of ribosome inactivation on fat accumulation, enterocyte and hepatocyte exposed to ribosome inactivation stress using the ribosome-binding agent were stained with Oil Red O.
Specifically, HCT-8 cells and HepG2 cells were obtained from the American Type Culture Collection (ATCC Rockville, Md., USA). HCT-8 and HepG2 cells were treated with vehicle, […], or 2 μM anisomycin (ANS) for 24 h. […] The staining results of HCT-8 cells are illustrated in FIG. 2 and the staining results of HepG2 cells are illustrated in FIG. 3.

| Compound | mRNA level of LDLR [1] | protein levels of LDLR [2] | mRNA level of LDLR [3] | level of LDLR expression in the mouse small intestine (villus epithelium of ileum and jejunum) [4] | fat accumulation in HCT-8 cells [5] |
| --- | --- | --- | --- | --- | --- |
| CC1=C[C@H]2O[C@@H]3[C@H](O)C[C@](C)([C@@]2(CO)[C@H](O)C1=O)[C@]31CO1 [DON, deoxynivalenol] | increases | increases | increases | increase | dose-dependently increased |
| COc1ccc(C[C@H]2NC[C@H](O)[C@H]2OC(C)=O)cc1 [ANS, anisomycin] | increases | increases | increases |  | dose-dependently increased |
